Test results taken from ChEMBL document CHEMBL6127128, “Discovery of the First-in-Class Dual-Target ROCK/HDAC Inhibitor with Potent Antitumor Efficacy in Vivo That Trigger Antitumor Immunity” (J Med Chem, 2024).
In brackets after ≈: the same amount, converted by molar mass. Activity calls are given as the source filed them. The rule behind the calls is not given here.

Tests used:
Histone deacetylase 1 = Histone deacetylase 1 (Homo sapiens, UniProt Q13547); test: Inhibition of HDAC1 (unknown origin) using Ac-Leu-Gly-Lys(Ac)-AMC as substrate preincubated for 5 mins followed by substrate addition for 30 mins and measured following trypsin addition for 30 mins by fluorescence based analysis
Histone deacetylase 5 = Histone deacetylase 5 (Homo sapiens, UniProt Q9UQL6); test: Inhibition of HDAC5 (unknown origin) using Ac-Leu-Gly-Lys(tfa)-AMC as substrate preincubated for 5 mins followed by substrate addition for 30 mins and measured following trypsin addition for 30 mins by fluorescence based analysis
Histone deacetylase 7 = molecular target: T1, Histone deacetylase 7 (Homo sapiens, UniProt Q8WUI4); test: Inhibition of HDAC7 (unknown origin) using Ac-Leu-Gly-Lys(tfa)-AMC as substrate preincubated for 5 mins followed by substrate addition for 30 mins and measured following trypsin addition for 30 mins by fluorescence based analysis
T1 sequence (Q8WUI4 whole entry): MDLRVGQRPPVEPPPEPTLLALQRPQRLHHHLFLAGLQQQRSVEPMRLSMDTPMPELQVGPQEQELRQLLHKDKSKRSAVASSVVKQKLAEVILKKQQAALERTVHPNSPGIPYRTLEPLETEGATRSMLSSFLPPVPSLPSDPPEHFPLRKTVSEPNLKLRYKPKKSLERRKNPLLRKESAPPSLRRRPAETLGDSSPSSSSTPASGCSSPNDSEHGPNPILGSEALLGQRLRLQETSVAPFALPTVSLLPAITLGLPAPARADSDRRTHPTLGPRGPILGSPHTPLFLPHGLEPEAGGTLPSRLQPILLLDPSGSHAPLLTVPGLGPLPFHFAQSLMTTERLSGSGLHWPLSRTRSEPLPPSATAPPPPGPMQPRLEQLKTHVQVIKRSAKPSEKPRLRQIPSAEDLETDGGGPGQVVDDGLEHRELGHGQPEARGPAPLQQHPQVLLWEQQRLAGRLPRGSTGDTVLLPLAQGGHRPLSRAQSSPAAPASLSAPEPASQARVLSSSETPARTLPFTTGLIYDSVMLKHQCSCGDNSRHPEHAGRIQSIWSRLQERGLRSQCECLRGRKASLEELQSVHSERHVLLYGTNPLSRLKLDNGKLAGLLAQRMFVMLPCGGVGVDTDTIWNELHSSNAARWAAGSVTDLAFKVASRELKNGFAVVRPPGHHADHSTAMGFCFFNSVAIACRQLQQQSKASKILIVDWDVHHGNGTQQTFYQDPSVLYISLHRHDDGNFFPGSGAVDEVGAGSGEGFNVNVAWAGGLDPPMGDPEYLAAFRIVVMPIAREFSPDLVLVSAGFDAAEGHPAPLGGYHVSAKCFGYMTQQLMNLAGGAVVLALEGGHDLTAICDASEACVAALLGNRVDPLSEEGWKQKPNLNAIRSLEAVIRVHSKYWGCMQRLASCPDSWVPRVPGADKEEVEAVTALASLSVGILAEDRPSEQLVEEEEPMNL

Histone deacetylase 11 = molecular target: T2, Histone deacetylase 11 (Homo sapiens, UniProt Q96DB2); test: Inhibition of HDAC11 (unknown origin) using Ac-Leu-Gly-Lys(Ac)-AMC as substrate preincubated for 5 mins followed by substrate addition for 30 mins and measured following trypsin addition for 30 mins by fluorescence based analysis
T2 sequence (Q96DB2 whole entry): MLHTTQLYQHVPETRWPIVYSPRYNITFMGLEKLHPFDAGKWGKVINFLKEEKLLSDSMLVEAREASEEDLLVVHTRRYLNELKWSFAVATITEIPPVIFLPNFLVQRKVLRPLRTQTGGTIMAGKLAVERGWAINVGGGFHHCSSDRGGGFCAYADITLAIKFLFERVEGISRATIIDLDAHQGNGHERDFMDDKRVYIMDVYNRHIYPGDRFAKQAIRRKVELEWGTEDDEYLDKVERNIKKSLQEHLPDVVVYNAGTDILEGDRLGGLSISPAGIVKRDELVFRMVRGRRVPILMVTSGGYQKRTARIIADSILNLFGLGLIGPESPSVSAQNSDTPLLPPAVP

4T1 [1] = test: Cytotoxicity against mouse 4T1 cells assessed as reduction in cell viability; type: functional, cell-based
[2] = Toxicity against Balb/c mouse implanted with mouse 4T1 cells assessed as effect on morphological changes in spleen at 25 to 50 mg/kg, po administered daily for 15 days by Hematoxylin-Eosin staining based analysis; type: organism-based; conditions: in vivo, 360 h, dose 25-50 mg/kg, time 15 day
[3] = Aqueous solubility of the compound in aqueous buffer at pH 7.4; type: physicochemical
[4] = Half-life in Balb/c mouse at 1 mg/kg, iv measured for 24 hrs by LC-MS/MS analysis; type: ADME, organism-based; conditions: in vivo
[5] = Tmax in Balb/c mouse at 1 mg/kg, iv measured for 24 hrs by LC-MS/MS analysis; type: ADME, organism-based; conditions: in vivo
[6] = Tmax in Balb/c mouse at 50 mg/kg, po measured for 24 hrs by LC-MS/MS analysis; type: ADME, organism-based; conditions: in vivo
[7] = AUC (0 to infinity) in Balb/c mouse at 50 mg/kg, po measured for 24 hrs by LC-MS/MS analysis; type: ADME, organism-based; conditions: in vivo
Mus musculus = test: Induction of immunogenic cell death-associated DAMP release in tumor of Balb/c mouse implanted with mouse 4T1 cells assessed as extranuclear diffusion of HMGB1 by measuring decrease in red fluorescence aggregates at 25 to 50 mg/kg, po administered daily for 15 days by immunofluorescence analysis; type: functional, organism-based; conditions: dose 25-50 mg/kg, time 15.0 day
4T1 [8] = test: Antitumor immunity against mouse 4T1 cells implanted in Balb/c mouse assessed as increase in CD86+ dendritic cells in tumor tissue at 25 mg/kg, po administered daily for 15 days by immunohistochemistry; type: functional, organism-based; conditions: time 15.0 day
4T1 [9] = test: Antitumor immunity against mouse 4T1 cells implanted in Balb/c mouse assessed as increase in CD86+ dendritic cells in tumor tissue at 50 mg/kg, po administered daily for 15 days by immunohistochemistry relative to SAHA; type: functional; conditions: time 15 day
4T1 [10] = test: Antitumor immunity against mouse 4T1 cells implanted in Balb/c mouse assessed as increase in CD3+ T cells in tumor tissue at 25 mg/kg, po administered daily for 15 days by flow cytometry; type: functional, organism-based; conditions: time 15.0 day
4T1 [11] = test: Antitumor immunity against mouse 4T1 cells implanted in Balb/c mouse assessed as increase in CD4+ T cells in tumor tissue at 25 mg/kg, po administered daily for 15 days by flow cytometry; type: functional, organism-based; conditions: time 15.0 day

Sequence of Histone deacetylase 1 (Q13547 whole entry): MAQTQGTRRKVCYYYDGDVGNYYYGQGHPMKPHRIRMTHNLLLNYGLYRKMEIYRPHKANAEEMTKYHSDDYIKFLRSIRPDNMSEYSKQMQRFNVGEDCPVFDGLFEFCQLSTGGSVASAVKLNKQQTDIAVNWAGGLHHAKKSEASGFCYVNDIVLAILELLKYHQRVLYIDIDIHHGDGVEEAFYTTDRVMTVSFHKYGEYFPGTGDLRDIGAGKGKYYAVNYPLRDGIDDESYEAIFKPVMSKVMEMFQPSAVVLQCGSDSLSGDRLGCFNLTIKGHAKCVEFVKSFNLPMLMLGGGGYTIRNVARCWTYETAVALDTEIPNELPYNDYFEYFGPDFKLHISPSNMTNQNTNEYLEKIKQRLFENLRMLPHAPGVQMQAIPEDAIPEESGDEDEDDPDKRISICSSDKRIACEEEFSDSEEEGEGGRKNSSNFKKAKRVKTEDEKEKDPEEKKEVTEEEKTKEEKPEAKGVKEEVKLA
Sequence of Histone deacetylase 5 (Q9UQL6 whole entry): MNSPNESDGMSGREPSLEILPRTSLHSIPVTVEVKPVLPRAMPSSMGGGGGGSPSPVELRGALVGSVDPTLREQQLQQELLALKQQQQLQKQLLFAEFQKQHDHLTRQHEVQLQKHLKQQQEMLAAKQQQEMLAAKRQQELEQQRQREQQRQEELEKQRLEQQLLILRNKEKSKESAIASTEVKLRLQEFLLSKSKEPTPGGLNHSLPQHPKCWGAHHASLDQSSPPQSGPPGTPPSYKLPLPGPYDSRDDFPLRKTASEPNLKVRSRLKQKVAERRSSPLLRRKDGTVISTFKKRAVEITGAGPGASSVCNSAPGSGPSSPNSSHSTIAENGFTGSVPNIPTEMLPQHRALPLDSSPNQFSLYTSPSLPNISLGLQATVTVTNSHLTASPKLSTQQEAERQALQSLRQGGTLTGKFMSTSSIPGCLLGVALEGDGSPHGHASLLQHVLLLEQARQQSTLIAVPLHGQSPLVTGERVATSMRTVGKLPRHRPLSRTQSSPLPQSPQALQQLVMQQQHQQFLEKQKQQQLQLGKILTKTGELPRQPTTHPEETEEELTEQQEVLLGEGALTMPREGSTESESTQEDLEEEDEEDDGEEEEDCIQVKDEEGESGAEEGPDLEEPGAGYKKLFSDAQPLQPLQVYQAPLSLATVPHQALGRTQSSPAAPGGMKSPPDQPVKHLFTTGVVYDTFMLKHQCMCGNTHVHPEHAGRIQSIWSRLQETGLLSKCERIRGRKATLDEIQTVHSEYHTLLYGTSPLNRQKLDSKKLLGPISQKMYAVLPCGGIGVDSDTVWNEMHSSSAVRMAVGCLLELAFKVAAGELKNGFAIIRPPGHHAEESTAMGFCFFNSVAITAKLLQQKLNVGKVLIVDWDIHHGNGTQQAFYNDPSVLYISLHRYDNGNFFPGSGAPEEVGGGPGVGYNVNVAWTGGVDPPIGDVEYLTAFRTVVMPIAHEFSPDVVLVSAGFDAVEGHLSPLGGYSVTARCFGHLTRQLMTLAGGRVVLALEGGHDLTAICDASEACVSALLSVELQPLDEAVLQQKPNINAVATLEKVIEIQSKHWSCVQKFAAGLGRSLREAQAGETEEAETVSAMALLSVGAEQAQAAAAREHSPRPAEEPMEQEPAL

`O=C(CCCCCCNC(=O)c1cc2cc(-c3cn[nH]c3)ccc2s1)NO` gave an IC50 (Histone deacetylase 1) of 9.09 nM, an IC50 (Histone deacetylase 5) of over 10000 nM and an IC50 (Histone deacetylase 7) of over 10000 nM. For the same compound, the IC50 (Histone deacetylase 11) was over 10000 nM, the IC50 (4T1 [1]) was 730 nM and the Activity [2] was “Non-Toxic”. The solubility [3] was 0.695 µg/mL (≈ 1.8 µM), the half-life [4] was 1340 min and the Tmax [5] was 4.8 min. For the same compound, the Tmax [6] was 1.8 min, the AUC(0-inf) [7] was 5.95 ng·h/mL and the Activity (Mus musculus) was “Active”. For the same compound, the Activity (4T1 [8]) was “Active”, the “fold change (FC)” value (4T1 [9]) was 1.82 and the Activity (4T1 [10]) was “Active”. For the same compound, the Activity (4T1 [11]) was “Active”.
